Measured values published in patent publication US20230233690A1, “ANDROGEN RECEPTOR PROTEIN DEGRADERS” (THE REGENTS OF THE UNIVERSITY OF MICHIGAN, priority 2020, published 2023).

How the values were obtained:
[1] = target: T1, AR protein (Homo sapiens, UniProt P10275, T878A); assay: Western blotting of AR protein degradation in LNCaP cells; format: cell-based; conditions: 24 hr treatment
T1 construct: endogenous in cells; host or cells: LNCaP
T1 sequence (P10275 1-920 T878A): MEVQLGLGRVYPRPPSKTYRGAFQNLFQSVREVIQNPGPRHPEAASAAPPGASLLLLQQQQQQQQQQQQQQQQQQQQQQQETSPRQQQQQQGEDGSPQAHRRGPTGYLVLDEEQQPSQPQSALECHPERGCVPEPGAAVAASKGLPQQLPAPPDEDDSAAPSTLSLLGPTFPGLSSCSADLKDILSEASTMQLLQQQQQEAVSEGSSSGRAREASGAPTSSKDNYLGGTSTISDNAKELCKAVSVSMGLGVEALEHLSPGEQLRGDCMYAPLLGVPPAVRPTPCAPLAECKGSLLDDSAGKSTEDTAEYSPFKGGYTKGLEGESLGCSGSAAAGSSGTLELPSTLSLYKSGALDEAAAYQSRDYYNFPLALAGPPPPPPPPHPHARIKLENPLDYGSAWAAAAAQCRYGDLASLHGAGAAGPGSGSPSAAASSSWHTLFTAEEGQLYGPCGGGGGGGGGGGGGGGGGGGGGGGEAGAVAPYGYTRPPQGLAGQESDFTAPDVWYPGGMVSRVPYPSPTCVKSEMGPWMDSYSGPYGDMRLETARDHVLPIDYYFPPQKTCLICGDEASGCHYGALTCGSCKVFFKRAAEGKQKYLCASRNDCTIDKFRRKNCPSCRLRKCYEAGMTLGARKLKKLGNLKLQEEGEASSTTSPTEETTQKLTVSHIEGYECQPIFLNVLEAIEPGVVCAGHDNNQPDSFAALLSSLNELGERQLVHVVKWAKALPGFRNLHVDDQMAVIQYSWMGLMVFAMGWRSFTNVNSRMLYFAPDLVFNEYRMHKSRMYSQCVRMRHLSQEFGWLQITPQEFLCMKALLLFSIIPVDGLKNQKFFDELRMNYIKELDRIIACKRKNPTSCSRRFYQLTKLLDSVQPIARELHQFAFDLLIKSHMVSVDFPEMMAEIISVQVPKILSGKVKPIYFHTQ
Description: (§1) The appropriate cell line, e.g., prostate cancer LNCaP, Vcap, or MDA-MB-453 cell line, was treated with Compounds of the Disclosure. The treated cells were lysed with RIPA buffer. The AR level in the cell lysates was examined by western blotting and a specific AR antibody (ab194196, Abcam, Cambridge, Mass. 02139) with concentration of 1:20,000. GAPDH was used as a loading control.
(§2) Bands were quantified with ImageJ software. The relative numbers of each band obtained from normalization with its corresponding GAPDH level were compared with Prism 8 software. The DC50 values were produced from Prism 8, and the DC90 values were calculated with an equation=Bottom+(Top−Bottom)/(1+10^((Log EC50−X)*HillSlope) based on DC50 and Hillslope values.
(§3) The amount of AR protein degradation in LNCaP, VCap, and MDA-MB-453 cells caused representative Compounds of the Disclosure at the concentrations indicated is presented in Table 4 and Table 5.

[2] = test system: AR protein; assay: Western blotting of AR protein degradation in MDA-MB-453 cells; format: cell-based; design: key: A: >90% degradation (24 hr treatment); B: >50% degradation but <90% (24 hr treatment); C: >10% degradation but <50% (24 hr treatment); D: No significant degradation (24 hr treatment); conditions: 24 hr treatment
Description: as §1, §2, §3

| AR protein degradation LNCAP 10 nM ([1]; 10 nM) | AR protein degradation LNCAP 100 nM ([1]; 100 nM) | Structure (SMILES) | AR protein degradation MDA-MB-453 10 nM ([2]; 10 nM) | AR protein degradation MDA-MB-453 100 nM [2] |
| --- | --- | --- | --- | --- |
| A (>90% degradation (24 hr treatment)) | A (>90% degradation (24 hr treatment)) | CC1(C)[C@H](NC(=O)c2ccc(N3CCN(CCCCCOc4cccc5c4CN(C4CCC(=O)NC4=O)C5=O)CC3)nc2)C(C)(C)[C@H]1Oc1ccc(C#N)c(Cl)c1 (stereo partly drawn) [compound 50] | – | – |
| – | – | N#Cc1ccc(O[C@H]2CC[C@H](Oc3ccc(C4CCN(CC5CCN(c6cccc7c6C(=O)N(C6CCC(=O)NC6=O)C7=O)CC5)CC4)cc3)CC2)cc1Cl (stereo partly drawn) [compound 53] | D | C (>10% degradation but <50% (24 hr treatment)) |
| – | – | N#Cc1ccc(O[C@@H]2CCC[C@@H](Oc3ccc(C4CCN(CC5CCN(c6cccc7c6C(=O)N(C6CCC(=O)NC6=O)C7=O)CC5)CC4)cc3)C2)cc1Cl (stereo partly drawn) [compound 54] | – | C (>10% degradation but <50% (24 hr treatment)) |
| – | – | N#Cc1ccc(O[C@@H]2CCC[C@@H](Oc3ccc(N4CCN(CC5CCN(c6ccc7c(c6)C(=O)N(C6CCC(=O)NC6=O)C7=O)CC5)CC4)cc3)C2)cc1Cl (stereo partly drawn) [compound 55] | – | C (>10% degradation but <50% (24 hr treatment)) |
